Assay results from US20260007133A1, “HERBICIDAL COMPOSITION COMPRISING AZINE COMPOUNDS” (BASF SE, priority 2022, published 2026).

Key:
Format in all cases: in vivo
[1] = system: Ambrosia artemisiifolia; experiment: Greenhouse pre-emergence (PRE) herbicidal test on AMBEL; details: 20 DAT; for % activity solo application: AMBEL
[2] = system: Commelina benghalensis; experiment: Greenhouse pre-emergence (PRE) herbicidal test on COMBE; details: 20 DAT
Method in brief: (§1)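 Pre-emergence greenhouse assay: sown loamy-sand pots (humus approx. 3.0%) were kept under transparent hoods until rooting, then grown at species-appropriate 10-25° C or 20-35° C. Response ratings of 0 (no damage) to 100 (no plants emerged) were recorded 20 days after application.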

[3] = system: Abutilon theophrasti; experiment: Greenhouse post-emergence (POST) herbicidal test on ABUTH; details: 20 DAT; for % activity solo application: ABUTH
Method in brief: (§2)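 Weeds grown in loamy sand (~3.0% humus) to 3–15 cm were sprayed post-emergence with compounds suspended or emulsified in water, formulated as 5% emulsion concentrates. Plants were kept at 10-25 °C or 20-35 °C by species. Damage was scored 0–100 (100 = complete destruction) at 20 DAT.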

[4] = system: Euphorbia heterophylla; experiment: Greenhouse pre-emergence (PRE) herbicidal test on EPHHL; details: 20 DAT; for % activity solo application: EPHHL
Method in brief: as §1

[5] = system: Alopecurus myosuroides; experiment: Greenhouse pre-emergence (PRE) herbicidal test on ALOMY; details: PRE, 20 DAT; for % activity solo application: ALOMY
Method in brief: as §1

[6] = system: Ipomoea hederacea; experiment: Greenhouse post-emergence (POST) herbicidal test on IPOHE; details: 20 DAT; for % activity solo application: IPOHE
Protocol: The culture containers used were plastic pots containing loamy sand with approximately 3.0% of humus as substrate. The seeds of the test plants were sown separately for each species.
For the post-emergence treatment, the test plants were grown to a plant height of from 3 to 15 cm, depending on the plant habit, and only then treated with the active compounds which had been suspended or emulsified in water. To this end, the test plants were either sown directly, and grown in the same containers, or they were first grown separately as seedlings and transplanted into the test containers a few days prior to treatment.
Depending on the species, the plants were kept at 10-25° C. and 20-35° C., respectively.
The test period extended over 2 to 4 weeks. During this time, the plants were tended and their response to the individual treatments was evaluated.
Evaluation was carried out using a scale from 0 to 100. 100 means no emergence of the plants, or complete destruction of at least the above-ground parts, and 0 means no damage or normal course of growth. A good herbicidal activity is given at values of at least 70, and very good herbicidal activity is given at values of at least 85.
If not stated differently, the respective components A and B, and if appropriate, C were formulated as a 5% by weight strength emulsion concentrate and, with addition of the amount of solvent system, introduced into the spray liquor used for applying the active compound.
As indicated application was either post emergent (POST) at the respective growth stage (GS) of the weed (BBCH code), or pre-emergent (PRE).
Assessment was 20 days after treatment (DAT).

[7] = system: Amaranthus retroflexus; experiment: Greenhouse post-emergence (POST) herbicidal test on AMARE; details: 20 DAT; for % activity solo application: AMARE
Method in brief: as §2

[8] = system: Amaranthus retroflexus; experiment: Greenhouse pre-emergence (PRE) herbicidal test on AMARE; details: 20 DAT; for % activity solo application: AMARE
Method in brief: as §1

[9] = system: Lolium multiflorum; experiment: Greenhouse pre-emergence (PRE) herbicidal test on LOLMU; details: 20 DAT; for % activity solo application: LOLMU
Method in brief: as §1

[10] = system: Abutilon theophrasti; experiment: Greenhouse pre-emergence (PRE) herbicidal test on ABUTH; details: 20 DAT; for % activity solo application: ABUTH
Method in brief: as §1

[11] = system: Geranium pusillum; experiment: Greenhouse post-emergence (POST) herbicidal test on GERPU; details: Geranium pusillum, post-emergence, 480 h, 20 DAT
Method in brief: as §2

[12] = system: Euphorbia heterophylla; experiment: Greenhouse post-emergence (POST) herbicidal test on EPHHL; details: 20 DAT; for % activity solo application: EPHHL
Method in brief: as §2

[13] = system: Setaria viridis; experiment: Greenhouse pre-emergence (PRE) herbicidal test on SETVI; details: 20 DAT; for % activity solo application: SETVI
Method in brief: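 Herbicidal effect is scored from 0 (no damage) to 100 (no emergence or above-ground parts destroyed), 20 days after treatment. Application is pre-emergent onto sown pots, with components given as a 5% by weight emulsion concentrate in the spray liquor.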

[14] = system: Digitaria sanguinalis; experiment: Greenhouse post-emergence (POST) herbicidal test on DIGSA; details: POST, DIGSA, 20 DAT
Method in brief: as §2

[15] = system: Echinochloa crus-galli; experiment: Greenhouse pre-emergence (PRE) herbicidal test on ECHCG; details: PRE, ECHCG, 20 DAT
[16] = system: Echinochloa crus-galli; experiment: Greenhouse post-emergence (POST) herbicidal test on ECHCG; details: Echinochloa crus-galli, post-emergence, 480 h, ECHCG POST, 20 DAT, use rate 25 gai/ha
Method in brief: as §2

SMILES: CCNc1nc(Cl)nc(NC(C)(C)C)n1 [Terbutylazine]
- pest or weed control at 15.6 g/ha ([1]; Ambrosia artemisiifolia, pre-emergence, 480 h, PRE, 15.6 gai/ha): 0%
- pest or weed control at 15.6 g/ha ([2]; Commelina benghalensis, pre-emergence, 480 h, PRE, 15.6 gai/ha): 0%
- pest or weed control at 62.5 g/ha ([2]; Commelina benghalensis, pre-emergence, 480 h, PRE, 62.5 gai/ha): 0%
- pest or weed control at 62.5 g/ha ([3]; Abutilon theophrasti, post-emergence, 480 h, POST, 62.5 gai/ha): 0%
- pest or weed control at 62.5 g/ha ([4]; Euphorbia heterophylla, pre-emergence, 480 h, PRE, 62.5 gai/ha): 0%
- pest or weed control at 15.6 g/ha ([5]; Alopecurus myosuroides, pre-emergence, 480 h, 15.6 gai/ha): 0%
- pest or weed control at 62.5 g/ha ([5]; Alopecurus myosuroides, pre-emergence, 480 h, 62.5 gai/ha): 0%
- pest or weed control at 15.6 g/ha ([6]; Ipomoea hederacea, post-emergence, 480 h, POST, 15.6 gai/ha): 0%
- pest or weed control at 62.5 g/ha ([7]; Amaranthus retroflexus, post-emergence, 480 h, POST, 62.5 gai/ha): 60%
- pest or weed control at 62.5 g/ha ([8]; Amaranthus retroflexus, pre-emergence, 480 h, PRE, 62.5 gai/ha): 0%
- pest or weed control at 15.6 g/ha ([9]; Lolium multiflorum, pre-emergence, 480 h, PRE, 15.6 gai/ha): 0%
- pest or weed control at 15.6 g/ha ([10]; Abutilon theophrasti, pre-emergence, 480 h, PRE, 15.6 gai/ha): 0%
- pest or weed control at 62.5 g/ha ([10]; Abutilon theophrasti, pre-emergence, 480 h, PRE, 62.5 gai/ha): 0%

SMILES: CC(C)N(C(=O)SCC(Cl)=C(Cl)Cl)C(C)C [Tri-Allate, Tri-allate]
- pest or weed control at 600 g/ha ([11]; POST, 600 gai/ha): 10%
- pest or weed control at 600 g/ha ([12]; Euphorbia heterophylla, post-emergence, 480 h, POST, 600 gai/ha): 10%
- pest or weed control at 1200 g/ha ([12]; Euphorbia heterophylla, post-emergence, 480 h, POST, 1200 gai/ha): 10%
- pest or weed control at 600 g/ha ([1]; Ambrosia artemisiifolia, pre-emergence, 480 h, PRE, 600 gai/ha): 10%
- pest or weed control at 1200 g/ha ([1]; Ambrosia artemisiifolia, pre-emergence, 480 h, PRE, 1200 gai/ha): 25%
- pest or weed control at 600 g/ha ([2]; Commelina benghalensis, pre-emergence, 480 h, PRE, 600 gai/ha): 0%
- pest or weed control at 1200 g/ha ([3]; Abutilon theophrasti, post-emergence, 480 h, POST, 1200 gai/ha): 0%
- pest or weed control at 600 g/ha ([4]; Euphorbia heterophylla, pre-emergence, 480 h, PRE, 600 gai/ha): 10%
- pest or weed control at 1200 g/ha ([4]; Euphorbia heterophylla, pre-emergence, 480 h, PRE, 1200 gai/ha): 10%
- pest or weed control at 1200 g/ha ([5]; Alopecurus myosuroides, pre-emergence, 480 h, 1200 gai/ha): 0%
- pest or weed control at 600 g/ha ([6]; Ipomoea hederacea, post-emergence, 480 h, POST, 600 gai/ha): 10%
- pest or weed control at 1200 g/ha ([6]; Ipomoea hederacea, post-emergence, 480 h, POST, 1200 gai/ha): 0%
- pest or weed control at 600 g/ha ([7]; Amaranthus retroflexus, post-emergence, 480 h, POST, 600 gai/ha): 25%
- pest or weed control at 1200 g/ha ([7]; Amaranthus retroflexus, post-emergence, 480 h, POST, 1200 gai/ha): 45%
- pest or weed control at 600 g/ha ([8]; Amaranthus retroflexus, pre-emergence, 480 h, PRE, 600 gai/ha): 10%
- pest or weed control at 1200 g/ha ([8]; Amaranthus retroflexus, pre-emergence, 480 h, PRE, 1200 gai/ha): 10%
- pest or weed control at 600 g/ha ([13]; Setaria viridis, pre-emergence, 480 h, PRE, 600 gai/ha): 0%
- pest or weed control at 600 g/ha ([9]; Lolium multiflorum, pre-emergence, 480 h, PRE, 600 gai/ha): 0%
- pest or weed control at 1200 g/ha ([9]; Lolium multiflorum, pre-emergence, 480 h, PRE, 1200 gai/ha): 10%
- pest or weed control at 600 g/ha ([10]; Abutilon theophrasti, pre-emergence, 480 h, PRE, 600 gai/ha): 10%

SMILES: CCc1cccc(C)c1N(C(=O)CCl)[C@@H](C)COC [S-Metolachlor, S-metolachlor]
- % activity solo application ([14]; 25 gai/ha): 0%
- % activity solo application ([14]; 50 gai/ha): 10%
- % activity solo application ([12]; POST, 25 gai/ha): 0%
- % activity solo application ([12]; POST, 50 gai/ha): 5%
- % activity solo application ([1]; PRE, 25 gai/ha): 0%
- % activity solo application ([1]; PRE, 50 gai/ha): 0%
- % activity solo application ([2]; PRE, COMBE, 25 gai/ha): 10%
- % activity solo application ([3]; POST, 25 gai/ha): 0%
- % activity solo application ([3]; POST, 50 gai/ha): 0%
- % activity solo application ([4]; PRE, 25 gai/ha): 0%
- % activity solo application ([4]; PRE, 50 gai/ha): 0%
- % activity solo application ([5]; 25 gai/ha): 0%
- % activity solo application ([5]; 50 gai/ha): 0%
- % activity solo application ([6]; POST, 25 gai/ha): 0%
- % activity solo application ([6]; POST, 50 gai/ha): 0%
- % activity solo application ([15]; 25 gai/ha): 20%
- % activity solo application ([15]; 50 gai/ha): 50%
- % activity solo application ([7]; POST, 25 gai/ha): 5%
- % activity solo application ([7]; POST, 50 gai/ha): 60%
- % activity solo application ([8]; PRE, 25 gai/ha): 20%
- % activity solo application ([8]; PRE, 50 gai/ha): 20%
- % activity solo application ([13]; PRE, 25 gai/ha): 10%
- % activity solo application ([13]; PRE, 50 gai/ha): 75%
- % activity solo application ([9]; PRE, 25 gai/ha): 0%
- % activity solo application ([9]; PRE, 50 gai/ha): 0%
- % activity solo application ([10]; PRE, 25 gai/ha): 0%
- % activity solo application ([10]; PRE, 50 gai/ha): 0%

SMILES: CC(C)N(C(=O)COc1nnc(C(F)(F)F)s1)c1ccc(F)cc1 [Flufenacet, flufenacet]
- inhibition at 12.5 g/ha ([11]; GERPU POST, use rate 12.5 gai/ha): 5%
- inhibition at 12.5 g/ha ([12]; Euphorbia heterophylla, post-emergence, 480 h, EPHHL POST, use rate 12.5 gai/ha): 0%
- inhibition at 12.5 g/ha ([1]; Ambrosia artemisiifolia, pre-emergence, 480 h, AMBEL PRE, use rate 12.5 gai/ha): 0%
- inhibition at 12.5 g/ha ([2]; Commelina benghalensis, pre-emergence, 480 h, COMBE PRE, use rate 12.5 gai/ha): 10%
- inhibition at 25 g/ha ([2]; Commelina benghalensis, pre-emergence, 480 h, COMBE PRE, use rate 25 gai/ha): 35%
- inhibition at 25 g/ha [16]: 85%
- inhibition at 25 g/ha ([3]; Abutilon theophrasti, post-emergence, 480 h, ABUTH POST, use rate 25 gai/ha): 0%
- inhibition at 12.5 g/ha ([4]; Euphorbia heterophylla, pre-emergence, 480 h, EPHHL PRE, use rate 12.5 gai/ha): 10%
- inhibition at 25 g/ha ([4]; Euphorbia heterophylla, pre-emergence, 480 h, EPHHL PRE, use rate 25 gai/ha): 10%
- inhibition at 12.5 g/ha ([6]; Ipomoea hederacea, post-emergence, 480 h, IPOHE POST, use rate 12.5 gai/ha): 0%
- inhibition at 25 g/ha ([6]; Ipomoea hederacea, post-emergence, 480 h, IPOHE POST, use rate 25 gai/ha): 0%
- inhibition at 12.5 g/ha ([7]; Amaranthus retroflexus, post-emergence, 480 h, AMARE POST, use rate 12.5 gai/ha): 15%
- inhibition at 25 g/ha ([7]; Amaranthus retroflexus, post-emergence, 480 h, AMARE POST, use rate 25 gai/ha): 25%
- inhibition at 12.5 g/ha ([8]; Amaranthus retroflexus, pre-emergence, 480 h, AMARE PRE, use rate 12.5 gai/ha): 0%
- inhibition at 25 g/ha ([13]; Setaria viridis, pre-emergence, 480 h, SETVI PRE, use rate 25 gai/ha): 65%
- inhibition at 12.5 g/ha ([9]; Lolium multiflorum, pre-emergence, 480 h, LOLMU PRE, use rate 12.5 gai/ha): 0%
- inhibition at 25 g/ha ([9]; Lolium multiflorum, pre-emergence, 480 h, LOLMU PRE, use rate 25 gai/ha): 35%
- inhibition at 12.5 g/ha ([10]; Abutilon theophrasti, pre-emergence, 480 h, ABUTH PRE, use rate 12.5 gai/ha): 0%
